Legend:
[1] = tested on: A375 (human melanoma cell); assay: In vitro anticancer (antiproliferative) MTT assay, A375; format: cell-based; settings: Homo sapiens, A-375, mean ± SD of three experiments in triplicate
Protocol: (§1) A375, MDA-MB-231, MGC-803, SMMC-7721, SGC-7901 and L-02 cell lines were cultured in DMEM medium supplemented with 10% (V/V) heat-inactivated fetal bovine serum (FBS) (Biological Industries, Israel) along with 100 U/mL penicillin and […] streptomycin (Beyotime, China). Cells were grown in a humidified 5% CO2 atmosphere at 37 °C and maintained in a logarithmic growth phase for all experiments.
(§2) 2.5. Anticancer assay[23]

MGC-803 cells [2] = assay: Cell cycle analysis by flow cytometry (PI staining); format: cell-based, human; settings: 48 h
Protocol: For cell cycle analysis, cell cycle kit (Beyotime, China) was performed. MGC-803 cells were treated with compound A33 at different concentrations for 48 h. Untreated and treated cells were harvested, and then MGC-803 cells were washed three times using cold PBS. And then cells were fixed in 70% ethanol at −20 °C for 1 h. After fixation, cells were washed with cold PBS and stained with 0.5 ml of propidium iodide (PI) staining buffer, which contain […] RNase A and 50 µg/mL PI, at 37 °C for 30 min in the dark. Analyses were conducted on FACSVerse Flow Cytometer (Becton Dickinson). The experiments were repeated three times.
To verify whether cell cycle arrest leads to decrease cells proliferation, we used flow cytometric analysis to measure the effect of this compound on induction of cell cycle. […] In a word, this compound can induce cell cycle arrest at G2/M phase in a concentration-dependent manner, delaying cell cycle progression, thereby resulting in cell proliferation inhibition.
Figure 3. Cell cycle distribution induced by compound A33 was measured in MGC-803 cells. Cells were treated with compound A33 of 3, 6 and 9 μM for 48 h. Samples were analysed by flow cytometry and received results were analysed by modifit software. TEXT PRINTED IN THE PICTURE: A33: Dip G1:39.11% (3μM); Dip G2:29.46% (3μM); Dip S: 31.44% (3μM); Dip G1:35.72% (6μM); Dip G2:50.46% (6μM); Dip S: 13.82% (6μM); Dip G1:32.62% (9μM); Dip G2:55.13% (9μM); Dip S: 12.25% (9μM)

NHP2 = assay: Western blotting of NHP2 expression in MGC-803 cells; format: cell-based, human; settings: MGC-803 cells, 3, 6, 9 µM, 48 h
Protocol: (§3) Human MGC-803 cells were lysed with RIPA lysis buffer (Beyotime, China). Whole extracts were prepared, and protein concentration was detected using a BCA protein assay kit (Beyotime, China). The protein samples were separated by SDS-PAGE and blotted onto a PVDF membrane (Millipore Corp, Billerica, MA). After blockade of non-specific protein binding, […] blots were incubated at 4 °C for 8 h with primary antibodies. After extensive washing in TBS/Tween-20, the membranes were incubated at room temperature for 1 h with secondary antibodies. After washed in TBS/Tween-20, the blots were processed with distilled water for detection of antigen using the enhanced chemiluminescence system. Proteins were visualised with ECL-chemiluminescent kit (ECL-plus, Thermo Scientific).
(§4) Dyskerin-NOP10-NHP2, trimer proteins are the core components of telomerase, playing a key role in the stabilisation, activation and assembly of telomerase, and the loss of dyskerin function can influence telomerase activity. Dyskerin over-expression associated with a variety of tumour types has been reported. […] Meanwhile, NHP2[39] and NOP10[40], as the important components of dyskerin-NHP2-NOP10 trimer, had also been assessed together. […]
(§5) Figure 5. […] The proteins expression of Dyskerin, NOP10 and NHP2 were analysed by Western blotting. The results are expressed as relative expression against control expression. n = 3. […]

[3] = tested on: SGC-7901 (human gastric cancer cell); assay: In vitro anticancer (antiproliferative) MTT assay, SGC-7901; format: cell-based; settings: Homo sapiens, SGC-7901, mean ± SD of three experiments in triplicate
Protocol: as §1, §2

[4] = tested on: MGC-803 (human gastric cancer cell); assay: In vitro anticancer (antiproliferative) MTT assay, MGC-803; format: cell-based; settings: Homo sapiens, MGC-803, mean ± SD of three experiments in triplicate
Protocol: as §1, §2

[5] = tested on: SMMC-7721 (human hepatoma cell); assay: In vitro anticancer (antiproliferative) MTT assay, SMMC-7721; format: cell-based; settings: Homo sapiens, SMMC-7721, mean ± SD of three experiments in triplicate
Protocol: as §1, §2

dyskerin = assay: Western blotting of dyskerin expression in MGC-803 cells; format: cell-based, human; settings: MGC-803 cells, 3, 6, 9 µM, 48 h
Protocol: as §3, §4, §5

MGC-803 cells [6] = assay: Apoptosis assay, Annexin V-FITC/PI flow cytometry; format: cell-based, human; settings: 48 h, untreated 4.27%
Protocol: For cell apoptosis analysis, we employed annexin V-FITC/PI apoptosis detection kit (BestBio, China). MGC-803 cells in logarithmic growth phase were treated with compound A33 at different concentrations for 48 h. Cells were collected in cold PBS by centrifugation for 5 min at 1000 g. And then cells were re-suspended at a buffer (1 × 10^6 cells/mL), stained with FITC-labeled annexin V and PI for 20 min in the dark and immediately analysed on FACSVerse Flow Cytometer (Becton Dickinson).
To determine whether compound A33 meditated inhibition of proliferation was related with apoptosis, MGC-803 cells was selected for examination. The Annexin V-FITC/PI apoptosis detection kit was used in cell apoptosis analysis. […] This is consistent with the fact that telomerase inhibitors can induce apoptosis and thus inhibit the unlimited proliferation of tumour cells.
Figure 4. Percentage of apoptotic cells was determined in MGC-803 cells by Annexin-V FITC/PI staining. MGC-803 cells were treated with increasing concentrations of compound A33 for 48 h and stained with Annexin-V FITC/PI. Apoptotic ratio increased, accompanied with the increase of concentration. TEXT PRINTED IN THE PICTURE: A33: Q1-UL(1.08%) (3μM); Q1-UR(9.20%) (3μM); Q1-LL(87.53%) (3μM); Q1-LR(2.19%) (3μM); Q1-UL(4.60%) (6μM); Q1-UR(29.31%) (6μM); Q1-LL(38.09%) (6μM); Q1-LR(28.00%) (6μM); Q1-UL(4.54%) (9μM); Q1-UR(49.18%) (9μM); Q1-LL(8.50%) (9μM); Q1-LR(37.78%) (9μM) DOUBTS OF THE COPYIST ABOUT THIS PICTURE: A33 3μM, Q1-UR: 9.20% partly covered by plot points, first digit 9 or 8 / A33 6μM, Q1-UR: 29.31% partly covered by plot points, digits not fully certain / A33 9μM, Q1-UR: 49.18% partly covered by plot points, digits not fully certain

[7] = tested on: MDA-MB-231 (human breast cancer cell); assay: In vitro anticancer (antiproliferative) MTT assay, MDA-MB-231; format: cell-based; settings: Homo sapiens, MDA-MB-231, mean ± SD of three experiments in triplicate
Protocol: as §1, §2

NOP10 = assay: Western blotting of NOP10 expression in MGC-803 cells; format: cell-based, human; settings: MGC-803 cells, 3, 6, 9 µM, 48 h
Protocol: as §3, §4, §5

[8] = tested on: human normal liver cell (L-02); assay: Toxicity against human normal liver cells, MTT assay; format: cell-based; settings: triplicate
Protocol: as §1, §2
In order to determine the selective cytotoxicity of selected compounds, we subsequently conducted a proliferative inhibition assay with human normal liver cell (L-02). […] Therefore, in combination with the above points, it is quite meaningful to further explore the mechanisms of this compound.

telomerase = target: T1, telomerase (Homo sapiens, UniProt O14746); assay: Telomerase activity assay using MGC-803 cells extract; format: biochemical; settings: mean ± SD
T1 construct: assayed for telomerase activity using MGC-803 cells extract; endogenous in cells; host or cells: MGC-803 cell extract
T1 sequence (O14746 whole entry): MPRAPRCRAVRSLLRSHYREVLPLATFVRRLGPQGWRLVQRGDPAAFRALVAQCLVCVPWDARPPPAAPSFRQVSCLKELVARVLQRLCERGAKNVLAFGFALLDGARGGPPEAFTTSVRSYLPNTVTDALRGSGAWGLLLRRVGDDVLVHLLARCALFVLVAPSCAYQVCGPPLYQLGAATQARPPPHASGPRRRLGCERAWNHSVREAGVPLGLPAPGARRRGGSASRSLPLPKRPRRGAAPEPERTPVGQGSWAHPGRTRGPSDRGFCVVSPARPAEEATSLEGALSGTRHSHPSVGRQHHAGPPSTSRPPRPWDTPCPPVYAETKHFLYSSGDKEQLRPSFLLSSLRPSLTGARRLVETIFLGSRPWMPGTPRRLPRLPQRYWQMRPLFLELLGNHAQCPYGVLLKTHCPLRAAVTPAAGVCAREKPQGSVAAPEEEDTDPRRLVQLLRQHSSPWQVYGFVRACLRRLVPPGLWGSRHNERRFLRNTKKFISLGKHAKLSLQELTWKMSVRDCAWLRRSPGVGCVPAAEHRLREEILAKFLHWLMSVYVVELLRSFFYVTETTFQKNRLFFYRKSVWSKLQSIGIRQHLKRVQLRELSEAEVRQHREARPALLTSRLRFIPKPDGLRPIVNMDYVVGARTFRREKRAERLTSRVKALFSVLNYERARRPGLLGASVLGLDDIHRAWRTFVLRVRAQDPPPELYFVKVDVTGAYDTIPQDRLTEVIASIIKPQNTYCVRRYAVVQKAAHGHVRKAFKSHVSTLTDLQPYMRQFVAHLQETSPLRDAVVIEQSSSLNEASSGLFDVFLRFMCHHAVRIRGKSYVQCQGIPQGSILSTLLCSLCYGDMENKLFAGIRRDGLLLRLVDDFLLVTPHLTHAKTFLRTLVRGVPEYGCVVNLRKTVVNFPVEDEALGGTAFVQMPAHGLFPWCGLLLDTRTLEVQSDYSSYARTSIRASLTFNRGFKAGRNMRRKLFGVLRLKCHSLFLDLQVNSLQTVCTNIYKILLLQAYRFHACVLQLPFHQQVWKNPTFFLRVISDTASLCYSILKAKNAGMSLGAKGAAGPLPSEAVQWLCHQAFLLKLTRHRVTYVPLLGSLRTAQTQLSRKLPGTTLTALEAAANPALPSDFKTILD
T1 sequence (O60832 2-514 partner limits assumed): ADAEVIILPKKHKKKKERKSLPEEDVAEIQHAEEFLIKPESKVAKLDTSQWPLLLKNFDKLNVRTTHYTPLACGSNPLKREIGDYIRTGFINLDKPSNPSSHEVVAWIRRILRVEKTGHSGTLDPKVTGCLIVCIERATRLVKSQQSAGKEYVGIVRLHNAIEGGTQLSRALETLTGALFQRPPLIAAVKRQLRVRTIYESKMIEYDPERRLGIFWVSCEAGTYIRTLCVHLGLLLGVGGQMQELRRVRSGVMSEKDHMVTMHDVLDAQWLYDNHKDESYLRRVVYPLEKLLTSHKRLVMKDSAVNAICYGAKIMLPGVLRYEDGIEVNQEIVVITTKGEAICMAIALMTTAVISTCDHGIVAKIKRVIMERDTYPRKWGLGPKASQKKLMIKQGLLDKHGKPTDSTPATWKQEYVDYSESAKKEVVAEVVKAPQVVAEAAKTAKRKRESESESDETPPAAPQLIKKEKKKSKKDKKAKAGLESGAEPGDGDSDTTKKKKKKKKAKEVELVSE
T1 sequence (Q9NPE3 whole entry partner): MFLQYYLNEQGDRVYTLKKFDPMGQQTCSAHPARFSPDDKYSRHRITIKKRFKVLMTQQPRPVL
T1 sequence (Q9NX24 whole entry partner): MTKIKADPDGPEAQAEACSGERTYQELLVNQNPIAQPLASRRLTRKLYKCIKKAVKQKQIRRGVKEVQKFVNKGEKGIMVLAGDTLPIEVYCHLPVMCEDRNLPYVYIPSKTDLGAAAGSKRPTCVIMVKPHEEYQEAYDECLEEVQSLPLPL
T1 sequence (Q9NY12 whole entry partner): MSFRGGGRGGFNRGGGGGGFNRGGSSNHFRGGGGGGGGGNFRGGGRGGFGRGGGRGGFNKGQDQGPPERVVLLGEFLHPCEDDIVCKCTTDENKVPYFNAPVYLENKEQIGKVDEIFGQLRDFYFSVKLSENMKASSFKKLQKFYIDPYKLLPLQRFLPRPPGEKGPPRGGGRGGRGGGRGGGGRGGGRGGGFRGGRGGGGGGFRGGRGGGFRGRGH

IC50 [1]: 11.2 ± 0.69 µM | IC50 [3]: 10 ± 0.51 µM | IC50 [4]: 8.76 ± 0.25 µM | IC50 [5]: 9.67 ± 0.82 µM | IC50 [7]: 9.89 ± 0.44 µM | IC50 (telomerase): 0.44 ± 0.09 µM
Structure (SMILES): COc1cc(OC)c2c(=O)c(OCC(=O)Nc3nnc(/C=C/c4ccccc4)o3)c(-c3cc(OC)c(OC)c(OC)c3)oc2c1 [A33, (E)-2–(5,7-dimethoxy-4-oxo-2–(3,4,5-trimethoxyphenyl)-4H-chromen-3-yloxy)-N-(5-styryl-1,3,4-oxadiazol-2-yl)acetamide]
G0/G1 phase distribution (Dip G1) (MGC-803 cells [2]; 3 μM): 39.11% | G2/M phase distribution (Dip G2) (MGC-803 cells [2]; 3 μM): 29.46% | S phase distribution (Dip S) (MGC-803 cells [2]; 3 μM): 31.44% | G0/G1 phase distribution (Dip G1) (MGC-803 cells [2]; 6 μM): 35.72% | G2/M phase distribution (Dip G2) (MGC-803 cells [2]; 6 μM): 50.46% | S phase distribution (Dip S) (MGC-803 cells [2]; 6 μM): 13.82% | G0/G1 phase distribution (Dip G1) (MGC-803 cells [2]; 9 μM): 32.62% | G2/M phase distribution (Dip G2) (MGC-803 cells [2]; 9 μM): 55.13% | S phase distribution (Dip S) (MGC-803 cells [2]; 9 μM): 12.25% | Increase of the G2/M phase distribution versus untreated (MGC-803 cells [2]; increasing concentrations (3, 6, 9 µM), from 9.76 to 55.13%): 45.37% | Expression of NHP2 (NHP2): lower level than control group | Expression level of dyskerin protein (dyskerin): reduced in a concentration-dependent manner | Percentage of AnnexinV-FITC binding MGC-803 cells (MGC-803 cells [6]; 3 μM (first of increasing concentrations, Figure 4)): 11.39% | Percentage of AnnexinV-FITC binding MGC-803 cells (MGC-803 cells [6]; 6 μM (second of increasing concentrations, Figure 4)): 57.31% | Percentage of AnnexinV-FITC binding MGC-803 cells (MGC-803 cells [6]; 9 μM (third of increasing concentrations, Figure 4)): 86.96% | Expression of NOP10 (NOP10): lower level than control group | IC50 [8]: 2210 ± 170 µM

Reference: publication PMC7782168, “Synthesis, telomerase inhibitory and anticancer activity of new 2-phenyl-4H-chromone derivatives containing 1,3,4-oxadiazole moiety” (Journal of Enzyme Inhibition and Medicinal Chemistry, 2020)
